From patent US12371405B1, “Isoindol-sulfilimine compound and use as a sigma-2 receptor inhibitor thereof” (SHANGHAI UNIVERSITY OF MEDICINE AND HEALTH SCIENCES, priority 2024, dated 2025) come the findings set out here.

Bounds are passed on as bounds.

For test [1], the target named is sigma-2 receptor (Homo sapiens, UniProt Q5BJF2). Briefly: Sigma 2 binding assay (3H-DTG radioligand, cell membrane). The note with it: sigma-2R cell membrane, 2 hours at room temperature; for IC50: read-out: Sigma 2 Binding Assay Summary IC50; for Ki: read-out: Sigma 2 Binding Assay Summary Ki. On the procedure: (§1) The pharmacodynamic test methods employed in this embodiment are those known to those skilled in the art; the sigma-2 receptor inhibitory activity assay kit employed in this embodiment is commercially available to those skilled in the art. sigmal/sigma-2 receptor affinity activity test:
(§2) In a 96-well plate, eight 4-fold dilutions of the test and reference compounds were made, and 1 μL of each compound was added to each well, and the wells were rearranged. The reference compound Haloperidol was added at a starting concentration of 1 μM, 1 μL of DMSO was added to the high signal control wells (High control), and 1 μL of Haloperidol was added to the low signal control wells (Low control) at a concentration of 200 μM (final concentration of 1 μM), and 100 μL of desired concentration of sigma-1R or sigma-2R cell membrane, diluted in 50 mM Tris-HCl (pH 7.4, Sigma, Cat: T1503-1 KG) was added to each well and 100 μL of desired concentration of 3H-DTG diluted in 50 mM Tris-HCl (pH 7.4) was added to each well, the 96-well plate was sealed, and incubated for 2 hours at room temperature on a shaker at 300 rpm. Simultaneously, GF/C filter plates (PerkinElmer, Cat: NET986250UC) were soaked with 0.3% PEI (Poly ethyleneimine, Sigma, Cat: P3143). After incubation, the cells were collected onto GF/C filter plates with a cell collector (PerkinElmer, model: C961961), washed 4 times with 50 mM Tris-HCl (pH 7.4) wash buffer, and then dried in an oven at 50° C. for 1 h. The bottom of the dried GF/C filter plates were sealed with a membrane, and 50 μL of scintillation solution was added into each well and sealed, and the cells were read by using a Microbeta (PerkinElmer, model: 2450 Microplate Counter). The percentage of activity was calculated using Microsoft Excel software with the formula: % Activity=100×(Sample RawValue−High Control Average)/(Low Control Average-High Control Average), using GraphPad Prism 5 data analysis software. The Dose-response-Stimulation-log [antagonist] vs. response-Variable slope model was selected for fitting analysis to obtain the IC50 value of each tested sample, and the results are shown in Table 1.

Test [2] addresses sigma-1 receptor (Homo sapiens, UniProt Q99720). Briefly: Sigma1 binding assay (3H-DTG radioligand, cell membrane). The settings on record: sigma-1R cell membrane, 2 hours at room temperature; for IC50: read-out: Sigma1 Binding Assay Summary IC50; for Ki: read-out: Sigma1 Binding Assay Summary Ki. On the procedure:
as §1, §2

sigma-1 receptor, sequence (Q99720 whole entry): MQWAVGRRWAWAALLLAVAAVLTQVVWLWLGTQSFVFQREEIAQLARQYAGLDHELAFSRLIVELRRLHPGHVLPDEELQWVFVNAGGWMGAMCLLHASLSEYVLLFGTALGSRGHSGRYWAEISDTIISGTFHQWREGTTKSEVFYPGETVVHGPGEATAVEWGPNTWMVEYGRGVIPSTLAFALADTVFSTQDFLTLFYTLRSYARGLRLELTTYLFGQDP
sigma-2 receptor, sequence (Q5BJF2 whole entry, species assumed): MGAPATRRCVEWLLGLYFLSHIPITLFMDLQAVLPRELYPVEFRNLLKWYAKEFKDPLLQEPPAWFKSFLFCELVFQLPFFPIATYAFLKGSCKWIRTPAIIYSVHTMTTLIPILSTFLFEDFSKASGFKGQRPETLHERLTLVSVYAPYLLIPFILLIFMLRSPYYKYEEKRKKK

As for `CC(=O)N=S(C)(=O)c1ccc2c(c1)CN(C(C)(C)CCc1ccc(O)c(OC(C)(C)C)c1)C2` (stereo not shown) [Compound 1, N-((2-(4-(3-(tert-butoxy)-4-hydroxyphenyl)-2-methylbutan-2-yl)isoindol-5-yl)(methyl)(oxo)-λ6-thioimido)acetamide], in test [1], the IC50 is above 100 nM and the Ki was above 100 nM. In addition, in test [2], the IC50 was above 1000 nM and the Ki was above 1000 nM.
With `CCC(=O)N=S(C)(=O)c1ccc2c(c1)CN(C(C)(C)CCc1ccc(O)c(OC(C)(C)C)c1)C2` (stereo not shown) [Compound 2, N-((2-(4-(3-(tert-butoxy)-4-hydroxyphenyl)-2-methylbutan-2-yl)isoindol-5-yl)(methyl)(oxo)-26-thioimido) propionamide], the IC50 in test [1] is above 100 nM; in test [2], above 1000 nM. Also, the inhibition constant (Ki) in test [1] is above 100 nM; in test [2], above 1000 nM.
For the compound `CCCC(=O)N=S(C)(=O)c1ccc2c(c1)CN(C(C)(C)CCc1ccc(O)c(OC(C)(C)C)c1)C2` (stereo not shown) [Compound 3, N-((2-(4-(3-(tert-butoxy)-4-hydroxyphenyl)-2-methylbutan-2-yl)isoindol-5-yl)(methyl)(oxo)-26-thioimido) butanamide], in test [1], the half-maximal inhibitory concentration (IC50) was above 500 nM and the Ki was above 500 nM. In test [2], the IC50 is above 5000 nM and the Ki was above 5000 nM.
On to `CCS(=O)(=NC(C)=O)c1ccc2c(c1)CN(C(C)(C)CCc1ccc(O)c(OC(C)(C)C)c1)C2` (stereo not shown) [Compound 4, N-((2-(4-(3-(tert-butoxy)-4-hydroxyphenyl)-2-methylbutan-2-yl)isoindol-5-yl)(ethyl)(oxo)-26-thioimido)acetamide], for which, in test [1], the IC50 was above 100 nM and the Ki is above 100 nM. Also, in test [2], the IC50 was above 1000 nM and the Ki was above 1000 nM.
As to `CCC(=O)N=S(=O)(CC)c1ccc2c(c1)CN(C(C)(C)CCc1ccc(O)c(OC(C)(C)C)c1)C2` (stereo not shown) [Compound 5, N-((2-(4-(3-(tert-butoxy)-4-hydroxyphenyl)-2-methylbutan-2-yl)isoindol-5-yl)(ethyl)(oxo)-16-thioimido) propionamide], in test [1], the IC50 was above 100 nM and the Ki is above 100 nM. Moreover, in test [2], the IC50 is above 1000 nM and the Ki is above 1000 nM.
Consider `CCCC(=O)N=S(=O)(CC)c1ccc2c(c1)CN(C(C)(C)CCc1ccc(O)c(OC(C)(C)C)c1)C2` (stereo not shown) [Compound 6, N-((2-(4-(3-(tert-butoxy)-4-hydroxyphenyl)-2-methylbutan-2-yl)isoindol-5-yl)(ethyl)(oxo)-26-thioimido) butyramide], for which, in test [1], the IC50 is above 500 nM and the Ki is above 500 nM. In test [2], the IC50 is above 5000 nM and the Ki is above 5000 nM.
Consider `CCCS(=O)(=NC(C)=O)c1ccc2c(c1)CN(C(C)(C)CCc1ccc(O)c(OC(C)(C)C)c1)C2` (stereo not shown) [Compound 7, N-((2-(4-(3-(tert-butoxy)-4-hydroxyphenyl)-2-methylbutan-2-yl)isoindol-5-yl)(propyl)(oxo)-26-thioimino)acetamide], for which, in test [1], the IC50 is above 500 nM and the Ki was above 500 nM. Also, in test [2], the IC50 was above 5000 nM and the inhibition constant (Ki) was above 5000 nM.
On to `CCCS(=O)(=NC(=O)CC)c1ccc2c(c1)CN(C(C)(C)CCc1ccc(O)c(OC(C)(C)C)c1)C2` (stereo not shown) [Compound 8, N-((2-(4-(3-(tert-butoxy)-4-hydroxyphenyl)-2-methylbutan-2-yl)isoindol-5-yl)(propyl)(oxo)-26-thioimido) propionamide], for which the IC50 is above 500 nM in test [1] and above 5000 nM in test [2]. Besides, the Ki in test [1] is above 500 nM; in test [2] it was above 5000 nM.
With `CCCC(=O)N=S(=O)(CCC)c1ccc2c(c1)CN(C(C)(C)CCc1ccc(O)c(OC(C)(C)C)c1)C2` (stereo not shown) [Compound 9, N-((2-(4-(3-(tert-butoxy)-4-hydroxyphenyl)-2-methylbutan-2-yl)isoindol-5-yl)(propyl)(oxo)-26-thioimido) butanamide], in test [1], the IC50 is above 500 nM and the inhibition constant (Ki) is above 500 nM. In addition, in test [2], the IC50 was above 5000 nM and the Ki was above 5000 nM.
Regarding `CCCCS(=O)(=NC(C)=O)c1ccc2c(c1)CN(C(C)(C)CCc1ccc(O)c(OC(C)(C)C)c1)C2` (stereo not shown) [Compound 10], in test [1], the IC50 is above 500 nM and the Ki is above 500 nM. In addition, in test [2], the IC50 is above 5000 nM and the Ki is above 5000 nM.
As for `CCCCS(=O)(=NC(=O)CC)c1ccc2c(c1)CN(C(C)(C)CCc1ccc(O)c(OC(C)(C)C)c1)C2` (stereo not shown) [Compound 11, N-((2-(4-(3-(tert-butoxy)-4-hydroxyphenyl)-2-methylbutan-2-yl)isoindol-5-yl)(butyl)(oxo)-26-thioimido) propionamide], in test [1], the IC50 was above 500 nM and the inhibition constant (Ki) is above 500 nM. Also, in test [2], the IC50 was above 5000 nM and the Ki is above 5000 nM.
Turning to `CCCCS(=O)(=NC(=O)CCC)c1ccc2c(c1)CN(C(C)(C)CCc1ccc(O)c(OC(C)(C)C)c1)C2` (stereo not shown) [Compound 12, N-((2-(4-(3-(tert-butoxy)-4-hydroxyphenyl)-2-methylbutan-2-yl)isoindol-5-yl)(butyl)(oxo)-26-thiimido) butyramide], in test [1], the IC50 is above 500 nM and the inhibition constant (Ki) was above 500 nM. Besides, in test [2], the IC50 was above 5000 nM and the Ki is above 5000 nM.
For `CC(=O)N=S(=O)(CF)c1ccc2c(c1)CN(C(C)(C)CCc1ccc(O)c(OC(C)(C)C)c1)C2` (stereo not shown) [Compound 13, N-((2-(4-(3-(tert-butoxy)-4-hydroxyphenyl)-2-methylbutan-2-yl)isoindol-5-yl)(fluoromethyl)(oxo)-26-thioimido)acetamide], in test [1], the IC50 was above 100 nM and the Ki is above 100 nM. For the same compound, in test [2], the IC50 was above 1000 nM and the Ki was above 1000 nM.
For the compound `CC(=O)N=S(=O)(CCCF)c1ccc2c(c1)CN(C(C)(C)CCc1ccc(O)c(OC(C)(C)C)c1)C2` (stereo not shown) [Compound 14], in test [1], the IC50 was above 500 nM and the Ki was above 500 nM. In test [2], the IC50 is above 5000 nM and the Ki was above 5000 nM.
As to `CC(=O)N=S(=O)(CCCCF)c1ccc2c(c1)CN(C(C)(C)CCc1ccc(O)c(OC(C)(C)C)c1)C2` (stereo not shown) [Compound 15, N-((2-(4-(3-(tert-butoxy)-4-hydroxyphenyl)-2-methylbutan-2-yl)isoindol-5-yl)(fluoro-butyl)(oxo)-26-thioimido)acetamide], in test [1], the IC50 is above 500 nM and the Ki is above 500 nM. In test [2], the IC50 is above 5000 nM and the inhibition constant Ki was above 5000 nM.
In the case of `CC(C)(C)Oc1cc(CCC(C)(C)N2Cc3ccc(S(C)(=N)=O)cc3C2)ccc1O` (stereo not shown) [Compound 16], in test [1], the IC50 is below 100 nM and the Ki was below 100 nM. Moreover, in test [2], the IC50 was above 100 nM and the Ki is above 100 nM.
With `CCS(=N)(=O)c1ccc2c(c1)CN(C(C)(C)CCc1ccc(O)c(OC(C)(C)C)c1)C2` (stereo not shown) [Compound 17], in test [1], the IC50 is below 100 nM and the Ki is below 100 nM. For the same compound, in test [2], the IC50 was above 100 nM and the inhibition constant Ki was above 100 nM.
`CCCS(=N)(=O)c1ccc2c(c1)CN(C(C)(C)CCc1ccc(O)c(OC(C)(C)C)c1)C2` (stereo not shown) [Compound 18]: the IC50 in test [1] was above 500 nM; in test [2], above 5000 nM. The Ki was above 500 nM in test [1] and above 5000 nM in test [2].
In the case of `CCCCS(=N)(=O)c1ccc2c(c1)CN(C(C)(C)CCc1ccc(O)c(OC(C)(C)C)c1)C2` (stereo not shown) [Compound 19], in test [1], the IC50 was above 100 nM and the Ki was above 100 nM. Moreover, in test [2], the IC50 was above 1000 nM and the Ki was above 1000 nM.
Regarding `CC(C)(C)Oc1cc(CCC(C)(C)N2Cc3ccc(S(=N)(=O)CF)cc3C2)ccc1O` (stereo not shown) [Compound 20], the IC50 in test [1] was below 100 nM; in test [2] it was above 100 nM. The Ki was below 100 nM in test [1] and above 100 nM in test [2].
As for `CC(C)(C)Oc1cc(CCC(C)(C)N2Cc3ccc(S(=N)(=O)CCCF)cc3C2)ccc1O` (stereo not shown) [Compound 21], in test [1], the IC50 was above 500 nM and the Ki was above 500 nM. In test [2], the IC50 was above 5000 nM and the Ki was above 5000 nM.
With `CC(C)(C)Oc1cc(CCC(C)(C)N2Cc3ccc(S(=N)(=O)CCCCF)cc3C2)ccc1O` (stereo not shown) [Compound 22], in test [1], the IC50 is above 500 nM and the Ki was above 500 nM. Further, in test [2], the IC50 is above 5000 nM and the Ki is above 5000 nM.

As a reminder, the IC50 is the concentration at which inhibition is half-maximal. As a reminder, the Ki is the dissociation constant of the complex between target and ligand, obtained from inhibition or displacement.
